{"source": "patent US20060057153A1", "about": "“Method and composition for the inhibition of mitosis” (priority 2002, published 2006)", "key": {"[1]": {"test_system": "HL-60, a promylocytic cell line", "experiment": "Bsh3 expression in HL-60 cells after treatment", "assay_type": "cell-based", "conditions": "HL60 cells treated with the agent", "from_the_text": "In addition to being a marker of tumor aggressiveness and treatment potential, Bsh3 expression can be used as a measurement of the effectiveness of anti-tumor therapy. In the Examples, it is shown that HL-60, a promylocytic cell line, had high levels of Bsh3 expression. […] The reduction in expression correlated with the degree of differentiation, the greater the differentiation, the lower the level of Bsh3 expression. Accordingly, Bsh3 expression can be used to measure the effectiveness of anti-tumor treatment: if Bsh3 expression decreases during treatment, the treatment protocol is effective and can be continued, whereas if Bsh3 expression remains unaltered, a different therapeutic regime or protocol needs to be performed."}, "[2]": {"test_system": "HeLa cells", "experiment": "siRNA depletion in thymidine-synchronized HeLa cells, immunofluorescence staining of metaphase cells, with or without Vinblastine", "assay_type": "cell-based, human", "conditions": "Buffer-transfected cells", "procedure": "To further analyze the mitotic defects apparent in Bsh3-depleted cells, siRNA depletion was performed using thymidine-synchronized cells. Briefly, HeLa cells were blocked by thymidine 40 hr after siRNA transfection. After 20 hr of thymidine treatment, cells were washed and cultured in thymidine free media for 14 hr, followed by immunofluorescence staining analysis using the anti-centromere antibody, ANA-C (Sigma). Chromosomes and mitotic spindles were localized by Hoechst and anti-α-tubulin staining, respectively. […] To distinguish these two possibilities, siRNA depletion and video-microscopy were performed using a HeLa cell line expressing the histone H2B-GFP fusion protein. While the wild-type cells were able to congress and segregate their chromosomes in 45-60 min, siRNA treated cells (30%) took more than 2 hr for the same process due to the fact that some chromosomes were delayed in alignment at the metaphase plate. […] However, only 0.34% of buffer-treated cells remained in metaphase (Table 1).\nTo confirm this interpretation, it was analyzed whether human Bsh3 depleted cells were more sensitive to Vinblastine (VBL), a microtubule-disrupting drug. It has been shown that a low concentration of VBL (nM) alters microtubule dynamics without depolymerizing microtubules. As a result, it affects chromosome movement during metaphase and delays chromosome congression. In addition Vinblastine disrupts kinetochore tension without affecting spindle-kinetochore attachment.\nsiRNA depletion using thymidine-synchronized cells, which were released into culture media with different concentrations of VBL for 14 hr, was followed by immunofluorescence staining as described in the previous section."}, "[3]": {"test_system": "S. pombe bir1-46 (Sp287)", "experiment": "Growth of bir1-46 on YES plates with thiabendazole", "assay_type": "cell-based", "conditions": "10 μg/ml TBZ, permissive temperature (28° C.), 3 days", "procedure": "Briefly, to identify the phenotypes of the temperature sensitive allele, bir1-46, Wild-type and bir1-46 (Sp287) were streaked out on YES plates or 10 μg/ml of thiabendazole (TBZ), followed by incubation at either 28° C. or 32° C. for 3 days. Wild-type, bir1-46, and a rad3Δ were grown in YES medium to mid log phase (O.D.595=0.5-0.6) and then plated on YES plates followed by UV irradiation. Plates were cultured at 28° C. with a foil cover for 1 day and without a foil cover for subsequent 4 days. Colony numbers were calculated and survival rates were determined based on control plates, which were not irradiated. bir1-46 was transformed with vector alone (pUR19), pUR19-bir1^+, pUR19-Bsh3^+, or pUR19-pic1^+. Transformants were streaked out on YES plates followed by incubation at either 28° C. or 34° C. for 3 days. To conduct the high-copy suppressor screen, Sp287 (bir-46) was transformed with either a cDNA or genomic DNA library. Transformants were incubated at 28° C. for 20 hr followed by further incubation at 34° C. for five days.\nGiven that bir1^+ is required for chromosome segregation and cytokinesis, it is plausible that bir1^+ is also involved in mitotic spindle integrity."}}, "data": [{"smiles": "CC1=C(/C=C/C(C)=C/C=C/C(C)=C/C(=O)O)C(C)(C)CCC1", "note": "[retenoic acid]", "values": [{"measurement": "Bsh3 expression", "setting": "[1]", "result": "reduction and elimination of Bsh3 expression"}]}, {"smiles": "CC[C@]1(O)C[C@@H]2CN(CCc3c([nH]c4ccccc34)[C@@](C(=O)OC)(c3cc4c(cc3OC)N(C)[C@H]3[C@@](O)(C(=O)OC)[C@H](OC(C)=O)[C@]5(CC)C=CCN6CC[C@]43[C@@H]65)C2)C1", "note": "[VBL, Vinblastine]", "values": [{"measurement": "% of cells in metaphase", "setting": "[2]; VBL 0.1 nM for 14 hr", "result": 1.5, "unit": "%"}, {"measurement": "% of cells in metaphase", "setting": "[2]; VBL 0.5 nM for 14 hr", "result": 1.7, "unit": "%"}, {"measurement": "% of cells in metaphase", "setting": "[2]; VBL 1 nM for 14 hr", "result": 13.6, "unit": "%"}]}, {"smiles": "c1ccc2[nH]c(-c3cscn3)nc2c1", "note": "[TBZ, Thiabendazole]", "values": [{"measurement": "growth of bir1-46", "setting": "[3]", "result": "failed to grow"}]}]}
